Data on three compounds can be found in US9012427B2, “Pharmaceutical combinations comprising a thionucleotide analog” (Alios BioPharma, Inc., priority 2012, dated 2015).

Read-outs that look alike come from different tables or passages of the source.

The subject of the experiment is genotype 1b replicon carrying the firefly luciferase reporter. Briefly: HCV replicon in vitro combination assay, dual and triple combination (Example 1). Type of experiment: cell-based. To be noted: Hepatitis C virus, 72 h, read-out: Individual IC50 values. Here is the method:
All compounds were dissolved in 100% DMSO (dimethyl sulfoxide) to a stock concentration of 10 mM and stored at −20° C. Serial 2-fold or 3-fold dilution series of compounds were prepared in 100% DMSO at 400-fold of the final concentration to be used in cell culture experiments that would result in a final DMSO concentration of 0.25% in growth medium.
Drug combination studies were carried out using the transient replicon system. On day one, in vitro transcribed RNA of a genotype 1b replicon carrying the firefly luciferase reporter was transfected into Huh-7-ET-cured cells using Minis transfection reagent. (Lohmann V et al., “Replication of subgenomic hepatitis C virus RNAs in a hepatoma cell line” Science (1999) 285(5424):110-113, which is hereby incorporated by reference in its entirety) Ten thousand transfected cells were cultured in complete DMEM medium [DMEM medium supplemented with 2 mM L-glutamine, 1× non-essential amino acids, 10% heat inactivated FBS and PenStrep (100 units/mL penicillin and 100 ug/mL streptomycin)] in the central 60 wells of 96-well, flat bottom, tissue culture treated plates and cultured at 37° C./5% CO2 humidified incubator for 24 h. The next day, compounds were serially diluted (2× or 3× dilution series) in 100% DMSO, mixed together in a checkerboard fashion and added to cells, and the plates were returned to the incubator for an additional 72 h. […] At the end of the incubation, cells from one set of the plates were lysed and the luciferase activity was measured using a luciferase assay kit. […]
The effects of dual combinations were evaluated using the Bliss independence model. (Greco et al., “The search for synergy: a critical review from a response surface perspective” Pharmacol. Rev. (1995) 47(2):331-385, which is hereby incorporated by reference in its entirety) The experimental data (RLU) was analyzed by using MacSynergy, a three-dimensional analytical method developed by Prichard and Shipman. […] The volume of the peak or depression is calculated to quantify the overall synergy or antagonism produced.

Where [1] appears, read: single compound, genotype 1b transient replicon in Huh-7-ET-cured cells, n = 3.

Turning to `CC(C)OC(=O)[C@H](C)N[P@](=S)(OC[C@H]1O[C@@H](n2ccc(=O)[nH]c2=O)[C@](C)(O)[C@@H]1O)Oc1ccccc1` [Compound 1004], the IC50 is 357 nM.

In the case of `COc1ccc2c(O[C@@H]3C[C@H]4C(=O)N[C@]5(C(=O)NS(=O)(=O)C6CC6)C[C@H]5/C=C\CCCCN(C)C(=O)[C@@H]4C3)cc(-c3nc(C(C)C)cs3)nc2c1C` [Compound 3013, TMC-435], under setting [1], the IC50 stood at 2.1 nM.

On to `COC(=O)N[C@H](C(=O)N1CCC[C@H]1c1ncc(-c2ccc(-c3ccc(-c4cnc([C@@H]5CCCN5C(=O)[C@@H](NC(=O)OC)C(C)C)[nH]4)cc3)cc2)[nH]1)C(C)C` [Compound 3043, Daclatasvir], for which the concentration for half-maximal inhibition (IC50) under setting [1] was determined as 0.0114 nM.

The IC50 is the concentration that inhibits the measured activity by half.
